Data from patent US6300112A, “β-xylosidase, nucleotide sequence encoding it, and use thereof” (Danisco Ingredients A.S (Danisco A/S), priority 1995, dated 2001).

Legend:
[1] = molecular target: T1, Aspergillus niger β-xylosidase I (X-I, xylD), SEQ ID NO. 1 (Aspergillus niger, UniProt O00089); assay: Inhibition of β-xylosidase X-I by xylose; format: biochemical; conditions: β-xylosidase X-I of the invention; read-out: inhibition Ki (mM xylosc)
T1 construct: Mono Q peak I
Protocol: (§1) Table A summarises the specificity pattern of two β-xylosidases X-I and X-II of the invention--presumably differing only in their glycosylation pattern, not in their amino acid sequence--and of the β-xylosidase reported by Rodionova et al., and their inhibition by xylose.
(§2) DEAE-Sephadex A-50 was equilibrated in 50 mM sodium acetate buffer pH 5.0 and was added to the culture filtrate. After 30-60 minutes of stirring at 4° C., the DEAE-Sephadex together with the culture filtrate were passed through a funnel with a glass filter holder and the DEAE-Sephadex A-50 was transferred to a column. […] Fractions containing β-xylosidase activity, as was detected using the chromogenic substrate 4-methylumbelliferyl-β-D-xyloside (detects β-xylosidases and endo-xylanases) (Sigma #M7008), were pooled and desalted by dialysis against Millipore water and subsequently dialysed against 20 mM piperazine-HCl buffer pH 5.0. […] The specific activity of both β-xylosidase I and II towards the artificial substrate PNP-X was determined as described by Rodionova et al., 1983, to be respectively 60.2 and 60.9 U/mg protein. In addition the activity against PNP-β-D-glucopyranoside (Sigma #N7006) was determined to be 0.2 and 0.3 U/mg, against PNP-β-D-galactopyranoside (Sigma #N1252) 0.0 and 0.0 U/mg and against PNP-β-L-arabinofuranoside(Sigma #N3641) 2.8 and 3.4 U/mg respectively for β-xylosidase I and II.

[2] = molecular target: T2, Aspergillus niger β-xylosidase II (X-II, xylD), SEQ ID NO. 1 (Aspergillus niger, UniProt O00089); assay: Inhibition of β-xylosidase X-II by xylose; format: biochemical; conditions: β-xylosidase X-II of the invention; read-out: inhibition Ki (mM xylosc)
T2 construct: Mono Q peak II
Protocol: as §1, §2

[3] = molecular target: Aspergillus niger β-xylosidase according to Rodionova et al. (1983); conditions: β-xyl (Rodionova), comparison enzyme; read-out: inhibition Ki (mM xylosc); cited from earlier work

T2 sequence (O00089 27-804): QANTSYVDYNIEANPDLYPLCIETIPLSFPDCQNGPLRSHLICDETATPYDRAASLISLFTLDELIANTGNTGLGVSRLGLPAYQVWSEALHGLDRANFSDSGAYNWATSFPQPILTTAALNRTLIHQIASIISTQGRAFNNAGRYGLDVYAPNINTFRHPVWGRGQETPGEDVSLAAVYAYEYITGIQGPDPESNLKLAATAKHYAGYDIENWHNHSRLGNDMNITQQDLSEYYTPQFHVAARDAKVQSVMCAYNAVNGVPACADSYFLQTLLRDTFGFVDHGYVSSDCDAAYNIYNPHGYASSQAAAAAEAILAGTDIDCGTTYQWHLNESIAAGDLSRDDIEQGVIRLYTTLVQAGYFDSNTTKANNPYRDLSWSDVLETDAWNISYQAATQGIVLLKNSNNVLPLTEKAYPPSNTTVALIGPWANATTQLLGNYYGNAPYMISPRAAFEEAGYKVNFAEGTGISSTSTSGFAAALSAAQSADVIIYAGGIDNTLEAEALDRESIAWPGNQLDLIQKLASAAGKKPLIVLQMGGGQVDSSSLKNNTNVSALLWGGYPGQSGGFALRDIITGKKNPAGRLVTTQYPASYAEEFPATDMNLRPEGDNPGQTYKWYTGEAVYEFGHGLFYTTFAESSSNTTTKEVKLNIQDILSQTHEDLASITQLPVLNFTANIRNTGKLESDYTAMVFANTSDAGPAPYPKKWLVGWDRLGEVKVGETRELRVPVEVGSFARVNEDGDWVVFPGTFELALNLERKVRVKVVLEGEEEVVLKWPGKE
T1 sequence (O00089 27-804): as above

xylose
Ki [1]: 9.8 mM
Ki [2]: 13.2 mM
Ki [3]: 2.9 mM
